“Also recorded” adds a separate entry of the source.
What was measured:
[1] = target: T1, METTL16 MTD–MAT2A-hp1 RNA interaction (Homo sapiens, UniProt Q86W50); assay: Electrophoretic mobility shift assay (EMSA) with FAM-MAT2A-hp1 RNA; details: 50 nM METTL16, 5 nM FAM-MAT2A-hp1
T1 sequence (Q86W50 1-291): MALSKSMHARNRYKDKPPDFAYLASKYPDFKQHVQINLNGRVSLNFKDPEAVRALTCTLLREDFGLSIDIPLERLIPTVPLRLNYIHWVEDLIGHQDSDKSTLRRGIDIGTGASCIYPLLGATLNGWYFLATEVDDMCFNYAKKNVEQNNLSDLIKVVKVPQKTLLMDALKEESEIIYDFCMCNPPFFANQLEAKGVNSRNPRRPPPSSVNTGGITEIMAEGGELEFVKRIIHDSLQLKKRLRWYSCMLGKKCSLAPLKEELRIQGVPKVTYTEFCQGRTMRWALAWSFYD
Procedure: METTL16 MTD protein (1–291) was incubated with the indicated compound or DMSO in a buffer containing 20 mM HEPES, pH 7.5, 50 mM NaCl, 0.05% v/v Tween 20, and 0.05 mg/mL BGG at room temperature for 30 min; subsequently, FAM-MAT2A-hp1 RNA probe was added and incubated at room temperature for 10 min, the final of protein and RNA are 50 and 5 nM respectively, and 1% DMSO was used as the control. […] The gel was detected and imaged by Chemi Doc MP (Bio-Rad).

[2] = target: T2, METTL16–MAT2A-hp1 mRNA interaction (METTL16 MTD 1–291, FAM-labeled MAT2A-hp1 RNA) (Homo sapiens, UniProt Q86W50); assay: Fluorescence polarization (FP) assay, disruption of METTL16 binding to FAM-MAT2A-hp1 RNA
T2 sequence (Q86W50 1-291): T1 sequence (Q86W50 1-291)
Procedure: The binding of METTL16 to the FAM-labeled RNA probe formed a complex that led to a higher FP signal in comparison to that of the unbound RNA probe (Figure 2A). […] The Z-factor of 0.91 indicated the suitability of the assay condition (Figure S2D). […] In both FP assay and EMSA, a final concentration of 50 nM METTL16 and 5 nM FAM-MAT2A-hp was used. The METTL16 MTD (amino acids 1–291) was used in this study unless specifically indicated otherwise.
The FP assay was performed using 384-well black plates (Corning #4514) in a total reaction volume of 20 μL, with the final concentration of protein and RNA being 50 and 5 nM respectively. Compounds were diluted in FP buffer and incubated with protein for 30 min at room temperature, then FAM-MAT2A-hp1 RNA probe was added and the fluorescence polarization was measured using a TECAN Spark plate reader, under the excitation wavelength of 485 nm and the emission wavelength of 535 nm with bandwidth of 20 nm. 1% DMSO was used as the control. The inhibition was calculated with the equation: inhibition = 100%(Control – X)/(Control – Blank); Control: DMSO with protein and FAM-RNA; Blank: DMSO with FAM-RNA; X: compound with protein and FAM-RNA. The IC50 value was further determined using GraphPad Prism 9. […] The polarization was measured under an excitation wavelength of 630 nm and an emission wavelength of 680 nm with a bandwidth of 20 nm.

[3] = target: T3, methyltransferase activity of METTL16 MTD toward MAT2A-hp1 (Homo sapiens, UniProt Q86W50); assay: In vitro methylation assay (MTase Glo); type: biochemical; details: RNA substrate MAT2A-hp1
T3 construct: METTL16 MTD (1–291) was subcloned to pOPINB plasmid; His tag followed by HRV 3C cleavage site (N, cleaved yes); made in house; host or cells: E. coli Rosetta (DE3)
T3 sequence (Q86W50 1-291): T1 sequence (Q86W50 1-291)
Procedure: Next, we evaluated the inhibition of the METTL16 methylation using the MTase Glo assay kit (Promega) measuring the methyltransferase activity based on the formation of the methylation product S-adenosyl homocysteine, which was converted to ADP by the MTase-Glo reagent to trigger a subsequent luciferase reaction (Figure 5E).
The methyltransferase activity of METTL16 MTD was measured using an MTase Glo kit (Promega V7601) following the manufacturer’s instructions. The reaction was carried out in white 384-well plates (Corning #3824), with a total methyltransferase reaction volume of 8 μL, and the final concentrations of METTL16 MTD, MAT2A-hp1, and SAM were 1, 1, and 10 μM, respectively, and 1% of DMSO was used as a control. […] To use SAM at a different final concentration, the concentration of SAM was adjusted accordingly in a 2× substrate solution.

[4] = target: T4, METTL16 MTD–U6 snRNA Δ interaction (Homo sapiens, UniProt Q86W50); assay: FP assay with Cy5-labeled U6 snRNA Δ; type: binding
T4 construct: METTL16 MTD (1–291) was subcloned to pOPINB plasmid; His tag followed by HRV 3C cleavage site (N, cleaved yes); made in house; host or cells: E. coli Rosetta (DE3)
T4 sequence (Q86W50 1-291): T1 sequence (Q86W50 1-291)

MDA-MB-231 cells [5] = assay: Cell viability, MDA-MB-231; type: cell-based, human
MDA-MB-231 cells [6] = assay: Colony formation assay; type: cell-based, human; details: 7 days, three tested concentrations
Procedure: MDA-MB-231 cells were collected and seeded with the density of 1000 cells per well into 24-well plates; after being cultured overnight, the medium was exchanged and treated with indicated compounds or DMSO (0.5%) as the control. The medium change and treatment were performed every 3 days. After 7 days, the cell culture medium was discarded, and cells were washed with PBS and fixed with 4% paraformaldehyde solution at room temperature for 15 min; the paraformaldehyde solution was removed, and cells were washed with PBS again to remove the paraformaldehyde. Then cells were stained with 0.1% (w/v) crystal violet. After staining for 15 min, the cells were washed with H2O to remove the extra dye and then photographed.

[7] = target: T5, METTL16 MTD–GGACU-containing RNA interaction (Homo sapiens, UniProt Q86W50); assay: EMSA with GGACU-containing RNA; details: 5 nM RNA, 600 nM METTL16 MTD
T5 sequence (Q86W50 1-291): T1 sequence (Q86W50 1-291)
Procedure: METTL16 MTD protein (1–291) was incubated with the indicated compound or DMSO in a buffer containing 20 mM HEPES, pH 7.5, 50 mM NaCl, 0.05% v/v Tween 20, and 0.05 mg/mL BGG at room temperature for 30 min; subsequently, FAM-MAT2A-hp1 RNA probe was added and incubated at room temperature for 10 min, the final of protein and RNA are 50 and 5 nM respectively, and 1% DMSO was used as the control. […] The gel was detected and imaged by Chemi Doc MP (Bio-Rad). […] EMSA for testing compounds with GGAUC-motif containing RNA and METTL16 MTD interaction was performed using the method described above, expecting that the final of METTL16 MTD protein and FAM-labeled-GGACU RNA are 600 nM and 5 nM respectively. EMSA for RNA binding: indicated concentrations of fluorophore-labeled RNA were incubated with indicated concentrations of protein in EMSA buffer for 15 min at room temperature, then loaded to native PAGE gels and imaged with the method described above.

[8] = target: T6, METTL16 MTD (methyltransferase domain) (Homo sapiens, UniProt Q86W50 1-291); assay: competition FP; vs FAM-MAT2A-hp1; 20 mM HEPES pH 7.5, 50 mM NaCl, 0.05% Tween 20, 0.05 mg/mL BGG, room temperature; EMSA 6.6% native PAGE 0.5x TBE at 4 C; details: protein: recombinant; tags: N-terminal His tag removed by HRV 3C (His-tagged form also purified)
T6 sequence: T1 sequence (Q86W50 1-291)

[9] = target: T6, METTL16 MTD (methyltransferase domain); assay: competition FP; vs FAM-MAT2A-hp1; more potent than GGACU-RNA and pre-miR-17-hp bp; 20 mM HEPES pH 7.5, 50 mM NaCl, 0.05% Tween 20, 0.05 mg/mL BGG, room temperature; EMSA 6.6% native PAGE 0.5x TBE at 4 C; details: protein: recombinant, tags: N-terminal His tag removed by HRV 3C (His-tagged form also purified)

For `COc1ccc(S(=O)(=O)NC2=NC(=O)C(=C3C(=O)Nc4ccc(Cl)cc43)S2)cc1` [Compound 1], the “disruption of METTL16–MAT2A-hp1 RNA binding in EMSA, in words” value [1] was “dose-dependent inhibition” and the IC50 [2] was 16.3 µM.

`O=C1N=C(NS(=O)(=O)c2ccc(C(=O)O)cc2)SC1=C1C(=O)Nc2ccc(Cl)cc21` [Compound 27] was tested, and the “inhibition of the methyltransferase activity of METTL16 MTD, in words” value [3] was “dose-dependently inhibited; also recorded: potent inhibitory activity”, the IC50 [4] was 6.6 µM and the “effect on cell viability, in words” value (MDA-MB-231 cells [5]) was “mild antiviability effect”. The “inhibition on colony formation, in words” value (MDA-MB-231 cells [6]) was “mild inhibitory activity against colony formation”, the “inhibition of METTL16–GGACU RNA binding in EMSA, in words” value [7] was “dose-dependently inhibited” and the IC50 [2] was 2.7 µM.

UUCUUCUGUGGACUGUG (ssRNA) [GGACU-RNA (unlabeled)] was tested, and the IC50 [8] was 0.814 µM.

GGGUUGACUGUUGAAUCUCAUGGCAACCC (structured_RNA) [pre-miR-21-hp]: binds ([9]; hairpin).

GUGCAGGUAGUGAUAUGUGCAUCUACUGCAC (structured_RNA) [pre-miR-17-hp]: binds ([9]; hairpin with two bulges).

— paper PMC11040665, “Aminothiazolone Inhibitors Disrupt the Protein–RNA Interaction of METTL16 and Modulate the m^6A RNA Modification” (JACS Au, 2024)
